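96-well plates; 48 h exposure; 5 concentrations. Endpoints by linear interpolation between flanking doses. Not reached: highest tested concentration assigned. Here, GI50 denotes the concentration required for 50% inhibition of growth.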 Active and inactive are the calls of the source. Cut-off read from the data, not from the text of the source: active = GI50 up to about 1.1 µM and inactive = higher.
Tests used:
Test in all cases: NCI tumour cell line growth inhibition, 48 h
SK-MEL-28 = tested on: SK-MEL-28
SK-MEL-5 = tested on: SK-MEL-5
HOP-62 = tested on: HOP-62
HCC 2998 = tested on: HCC 2998
CAKI-1 = tested on: CAKI-1
CCRF-CEM = tested on: CCRF-CEM
TK-10 = tested on: TK-10
MDA-MB-435 = tested on: MDA-MB-435
SF-268 = tested on: SF-268
NCI-H23 = tested on: NCI-H23
SK-MEL-2 = tested on: SK-MEL-2
OVCAR-3 = tested on: OVCAR-3
UACC-62 = tested on: UACC-62
PC-3 = tested on: PC-3
T47D = tested on: T47D
ACHN = tested on: ACHN
U-251 = tested on: U-251
A549 = tested on: A549
NCI-H460 = tested on: NCI-H460
OVCAR-8 = tested on: OVCAR-8
UO-31 = tested on: UO-31
MDA-MB-231 = tested on: MDA-MB-231
MDA-N = tested on: MDA-N
NCI-H226 = tested on: NCI-H226
IGROV-1 = tested on: IGROV-1
786-0 = tested on: 786-0
SN12C = tested on: SN12C
BT-549 = tested on: BT-549
RXF 393 = tested on: RXF 393
HCT-15 = tested on: HCT-15
HL-60 = tested on: HL-60
COLO 205 = tested on: COLO 205
RPMI-8226 = tested on: RPMI-8226
KM12 = tested on: KM12
NCI/ADR-RES = tested on: NCI/ADR-RES
MOLT-4 = tested on: MOLT-4
MCF7 = tested on: MCF7
SK-OV-3 = tested on: SK-OV-3
SW-620 = tested on: SW-620
HCT-116 = tested on: HCT-116
K562 = tested on: K562
UACC-257 = tested on: UACC-257
Malme-3M = tested on: Malme-3M
SF-295 = tested on: SF-295
HT-29 = tested on: HT-29
DU-145 = tested on: DU-145
M14 = tested on: M14
OVCAR-5 = tested on: OVCAR-5
EKVX = tested on: EKVX
OVCAR-4 = tested on: OVCAR-4
Hs-578T = tested on: Hs-578T
SNB-75 = tested on: SNB-75
SNB-19 = tested on: SNB-19
A498 = tested on: A498
NCI-H522 = tested on: NCI-H522
LOX IMVI = tested on: LOX IMVI
HOP-92 = tested on: HOP-92
SF-539 = tested on: SF-539

Structure (SMILES): Cc1ccc(/N=N/N(C)C(C)C(O)Cc2ccccc2)cc1 (centres undefined)
- GI50 (SK-MEL-28): 65.8 µM (inactive)
- GI50 (SK-MEL-5): 39.6 µM (inactive)
- GI50 (HOP-62): > 100 µM (inactive)
- GI50 (HCC 2998): 53.3 µM (inactive)
- GI50 (CAKI-1): 93.8 µM (inactive)
- GI50 (CCRF-CEM): 32.7 µM (inactive)
- GI50 (TK-10): 29 µM (inactive)
- GI50 (MDA-MB-435): 35.9 µM (inactive)
- GI50 (SF-268): 46 µM (inactive)
- GI50 (NCI-H23): 50.9 µM (inactive)
- GI50 (SK-MEL-2): 37.8 µM (inactive)
- GI50 (OVCAR-3): 84.3 µM (inactive)
- GI50 (UACC-62): 52.1 µM (inactive)
- GI50 (PC-3): 20.3 µM (inactive)
- GI50 (T47D): 33.7 µM (inactive)
- GI50 (ACHN): 78.5 µM (inactive)
- GI50 (U-251): 88.5 µM (inactive)
- GI50 (A549): 60.5 µM (inactive)
- GI50 (NCI-H460): 36.5 µM (inactive)
- GI50 (OVCAR-8): 37.7 µM (inactive)
- GI50 (UO-31): 18 µM (inactive)
- GI50 (MDA-MB-231): 52.7 µM (inactive)
- GI50 (MDA-N): 23.7 µM (inactive)
- GI50 (NCI-H226): > 100 µM (inactive)
- GI50 (IGROV-1): 29.2 µM (inactive)
- GI50 (786-0): 59.4 µM (inactive)
- GI50 (SN12C): 27.9 µM (inactive)
- GI50 (BT-549): 41 µM (inactive)
- GI50 (RXF 393): 40.6 µM (inactive)
- GI50 (HCT-15): 41 µM
- GI50 (HL-60): 33.8 µM (inactive)
- GI50 (COLO 205): 40.9 µM (inactive)
- GI50 (RPMI-8226): 12.4 µM (inactive)
- GI50 (KM12): 25.2 µM (inactive)
- GI50 (NCI/ADR-RES): 40.4 µM (inactive)
- GI50 (MOLT-4): 33.7 µM (inactive)
- GI50 (MCF7): 47.9 µM (inactive)
- GI50 (SK-OV-3): > 100 µM (inactive)
- GI50 (SW-620): 64.9 µM (inactive)
- GI50 (HCT-116): 49.3 µM (inactive)
- GI50 (K562): 39.3 µM (inactive)
- GI50 (UACC-257): 84.9 µM (inactive)
- GI50 (Malme-3M): > 100 µM (inactive)
- GI50 (SF-295): 38.3 µM (inactive)
- GI50 (HT-29): 80.4 µM (inactive)
- GI50 (DU-145): 52.1 µM (inactive)
- GI50 (M14): 95.7 µM (inactive)
- GI50 (OVCAR-5): > 100 µM (inactive)
- GI50 (EKVX): 62.2 µM (inactive)
- GI50 (OVCAR-4): > 100 µM (inactive)
- GI50 (Hs-578T): 41.9 µM (inactive)
- GI50 (SNB-75): 43.9 µM (inactive)
- GI50 (SNB-19): 82.2 µM (inactive)

Structure (SMILES): CCN(CC)/C(Sc1ccccc1)=C(\C(Cl)=C(Cl)Cl)[N+](=O)[O-]
- GI50 (SK-MEL-28): 17.9 µM (inactive)
- GI50 (SK-MEL-5): 14.1 µM (inactive)
- GI50 (HOP-62): 23.5 µM (inactive)
- GI50 (HCC 2998): 19.5 µM (inactive)
- GI50 (CAKI-1): 13 µM (inactive)
- GI50 (CCRF-CEM): 4.99 µM (inactive)
- GI50 (TK-10): 16.9 µM (inactive)
- GI50 (MDA-MB-435): 13.5 µM (inactive)
- GI50 (SF-268): 21.4 µM (inactive)
- GI50 (NCI-H23): 13.7 µM (inactive)
- GI50 (OVCAR-3): 16.4 µM (inactive)
- GI50 (UACC-62): 14.6 µM (inactive)
- GI50 (PC-3): 17.2 µM (inactive)
- GI50 (A498): 21.1 µM (inactive)
- GI50 (T47D): 17.8 µM (inactive)
- GI50 (ACHN): 17.1 µM (inactive)
- GI50 (A549): 21.7 µM (inactive)
- GI50 (NCI-H460): 21.7 µM (inactive)
- GI50 (OVCAR-8): 17.2 µM (inactive)
- GI50 (UO-31): 14.8 µM (inactive)
- GI50 (MDA-MB-231): 24.2 µM (inactive)
- GI50 (MDA-N): 16.9 µM (inactive)
- GI50 (NCI-H226): 18.5 µM (inactive)
- GI50 (IGROV-1): 16 µM (inactive)
- GI50 (786-0): 18 µM (inactive)
- GI50 (SN12C): 17.9 µM (inactive)
- GI50 (BT-549): 15.8 µM (inactive)
- GI50 (RXF 393): 13.6 µM (inactive)
- GI50 (HCT-15): 14.9 µM
- GI50 (HL-60): 1.81 µM (inactive)
- GI50 (COLO 205): 16.4 µM (inactive)
- GI50 (NCI-H522): 12.6 µM (inactive)
- GI50 (KM12): 17.7 µM (inactive)
- GI50 (NCI/ADR-RES): 24.9 µM (inactive)
- GI50 (MOLT-4): 6.93 µM (inactive)
- GI50 (MCF7): 14.9 µM (inactive)
- GI50 (SK-OV-3): 33.4 µM (inactive)
- GI50 (SW-620): 17.9 µM (inactive)
- GI50 (LOX IMVI): 11 µM (inactive)
- GI50 (HCT-116): 16.4 µM (inactive)
- GI50 (K562): 10.8 µM (inactive)
- GI50 (UACC-257): 19.1 µM (inactive)
- GI50 (Malme-3M): 18 µM (inactive)
- GI50 (SF-295): 17.6 µM (inactive)
- GI50 (HT-29): 21.5 µM (inactive)
- GI50 (DU-145): 16.9 µM (inactive)
- GI50 (M14): 17.3 µM (inactive)
- GI50 (HOP-92): 14.2 µM (inactive)
- GI50 (EKVX): 15.6 µM (inactive)
- GI50 (OVCAR-4): 33.7 µM (inactive)
- GI50 (Hs-578T): 20.7 µM (inactive)
- GI50 (SF-539): 17.3 µM (inactive)
- GI50 (SNB-75): 20.4 µM (inactive)
- GI50 (SNB-19): 20.6 µM (inactive)

Structure (SMILES): C1CSCCCSCCSCCCSC1
- GI50 (SK-MEL-28): > 100 µM (inactive)
- GI50 (SK-MEL-5): > 100 µM (inactive)
- GI50 (HOP-62): > 100 µM (inactive)
- GI50 (HCC 2998): > 100 µM (inactive)
- GI50 (CAKI-1): > 100 µM (inactive)
- GI50 (TK-10): > 100 µM (inactive)
- GI50 (MDA-MB-435): > 100 µM (inactive)
- GI50 (SF-268): > 100 µM (inactive)
- GI50 (NCI-H23): > 100 µM (inactive)
- GI50 (SK-MEL-2): > 100 µM (inactive)
- GI50 (UACC-62): > 100 µM (inactive)
- GI50 (PC-3): > 100 µM (inactive)
- GI50 (A498): > 100 µM (inactive)
- GI50 (T47D): > 100 µM (inactive)
- GI50 (ACHN): > 100 µM (inactive)
- GI50 (U-251): > 100 µM (inactive)
- GI50 (A549): > 100 µM (inactive)
- GI50 (NCI-H460): > 100 µM (inactive)
- GI50 (OVCAR-8): > 100 µM (inactive)
- GI50 (UO-31): > 100 µM (inactive)
- GI50 (MDA-MB-231): > 100 µM (inactive)
- GI50 (MDA-N): > 100 µM (inactive)
- GI50 (NCI-H226): > 100 µM (inactive)
- GI50 (IGROV-1): > 100 µM (inactive)
- GI50 (786-0): > 100 µM (inactive)
- GI50 (SN12C): > 100 µM (inactive)
- GI50 (BT-549): > 100 µM (inactive)
- GI50 (RXF 393): > 100 µM (inactive)
- GI50 (HCT-15): > 100 µM
- GI50 (COLO 205): > 100 µM (inactive)
- GI50 (NCI-H522): 67.9 µM (inactive)
- GI50 (RPMI-8226): > 100 µM (inactive)
- GI50 (MOLT-4): > 100 µM (inactive)
- GI50 (MCF7): > 100 µM (inactive)
- GI50 (SK-OV-3): > 100 µM (inactive)
- GI50 (SW-620): > 100 µM (inactive)
- GI50 (LOX IMVI): > 100 µM (inactive)
- GI50 (HCT-116): > 100 µM (inactive)
- GI50 (K562): > 100 µM (inactive)
- GI50 (UACC-257): > 100 µM (inactive)
- GI50 (SF-295): > 100 µM (inactive)
- GI50 (HT-29): > 100 µM (inactive)
- GI50 (DU-145): > 100 µM (inactive)
- GI50 (M14): > 100 µM (inactive)
- GI50 (HOP-92): > 100 µM (inactive)
- GI50 (OVCAR-5): > 100 µM (inactive)
- GI50 (EKVX): > 100 µM (inactive)
- GI50 (OVCAR-4): > 100 µM (inactive)
- GI50 (Hs-578T): > 100 µM (inactive)
- GI50 (SF-539): > 100 µM (inactive)
- GI50 (SNB-75): > 100 µM (inactive)
- GI50 (SNB-19): > 100 µM (inactive)
